The values that follow come from US20040096356A1, “Assay device for determining analytes in a liquid dairy product” (priority 1997, published 2004).

Each structure is given as a SMILES string.

Common to all, as to format: binding
Assay [1] deals with T1, receptor BlaR-CTD (Bacillus licheniformis, UniProt P12287).
T1 construct: the receptor BlaR-CTD is the carboxy-terminal region of BlaR
The assay is described as follows: 9-minute test: strip test for β-lactam antibiotics in milk using BlaR-CTD. Conditions: in 9 minutes; positive when first band is less intense than second band. The source says: (§1) According to a preferred embodiment of the invention an identifier is used which comprises a receptor sensitive to antibiotics having a β-lactam ring, which receptor is obtained from Bacillus licheniformis, such as the receptor BlaR or the receptor BlaR-CTD. The isolation and the peptide sequence of the protein BlaR are described in Y. Zhu et al., J. Bacteriol., 1137-1141 (1990); the receptor BlaR-CTD is the carboxy-terminal region of BlaR, whose isolation and peptide sequence are described in B. Joris et al., FEMS Microbiology Letters, 107-114 (1990).
(§2) This example illustrates the detection in milk of antibiotics having a β-lactam ring which are monitored by the health authorities. The test described in this example uses the receptor BlaR-CTD coupled with gold beads, which serve as labelling agents, and uses a support which is in the form of an assay device comprising a solid support on which membranes are fixed.
(§3) 3.79 ml of a solution of recognition agent BlaR-CTD having a concentration of 6.6 mg/ml are taken up in a sodium phosphate buffer, 20 mM pH 7. To this solution of BlaR-CTD are then added 41.71 ml of bicarbonate buffer (0.1 M sodium bicarbonate, pH 9) and 2 ml of a solution of N-hydroxysuccinimide 6-(biotinamido)caproic ester containing 2.23 mg/ml likewise of bicarbonate buffer. This solution is stirred gently on a LABINCO stirrer for tubes on a rotary axis (available from VEL, Belgium) at a rate of 2 revolutions/minute for 2 hours at ambient temperature and away from light. 2.5 ml of a solution of Tris buffer, 1 M pH 8 are incubated with the reaction mixture under the same conditions for 30 minutes. The solution thus obtained is dialysed against HNM buffer (Hepes 100 mM, pH 8, NaCl 100 mM, MgCl2 50 mM) for 24 hours. In this way a biotinylated BlaR-CTD solution is obtained which is diluted in HNM-BSA buffer (Hepes 500 mM, pH 8, NaCl 500 mM, MgCl2 250 mM, BSA 10 mg/ml) to a concentration of 250 μg of biotinylated BlaR-CTD per ml of buffer. This solution is stored at −20° C.
(§4) The biotinylated BlaR-CTD solution prepared in Example 3.1.1 is diluted 114.7 times with the HNM-BSA buffer (Hepes 500 mM, pH 8, NaCl 500 mM, MgCl2 250 mM, BSA 10 mg/ml). At room temperature, 22.5 parts by volume of this dilute biotinylated BlaR-CTD solution, 7.5 parts by volume of HNM-BSA buffer, 9.27 parts by volume of the gold particle suspension used to label the biotinylated BlaR-CTD and 6 parts by volume of reference gold particle suspension are mixed (see Example 3.1.4 below).
(§5) The first capture substance makes it possible to fix the BlaR-CTD coupled with the gold beads present in excess relative to the quantity of antibiotic present in the sample.
(§6) Assay devices containing membranes (2), (3) and (4) are used, assembled in accordance with the procedure described in Example 1.1. The membrane (3) of these devices carries on the proximal side the capture substance described in Example 32.1. and on the distal side the capture substance described in Example 3.2.2. The capture substances were deposited in accordance with the procedure described in Example 1.2.
Six samples of fresh milk are prepared, containing 0; 4; 6; 8; 10 and 12 ppb, respectively, of cephapirin. Each of these solutions is then analysed as follows.
An aliquot is taken of 200 μl of milk sample and 45.27 μl of solution prepared in Example 3.1.3, and is placed in a glass flask. This mixture is incubated at 47° C. for 7 minutes. An assay device is taken and is placed vertically in the glass flask such that the first end of the assay device is in contact with the mixture in such a way that the second end rests on the wall of the glass flask. The mixture is allowed to migrate over the assay device while the assembly is incubated at 47° C. for 2 minutes.
(§7) An intensity value ranging from 0 to 10 is awarded to the bands detected, the value 10 being given to the most intense band and the value 0 being given to the least intense band. On this scale, a value of 6 is awarded to the reference band. […]

In assay [2] the target is T1, receptor BlaR-CTD. The assay is described as follows: Five minutes test: strip test for β-lactam antibiotics in milk using BlaR-CTD. Conditions: in 5 minutes; positive when first band is less intense than second band.
Excerpt: as §1, §2, §3, §4, §5, §6
Six samples of fresh milk are prepared, containing 0; 2; 4; 6; 8 and 10 ppb, repsectively, of cloxacillin. Each of these solutions is then analysed as follows.
An aliquot is taken of 200 μl of milk sample and 45.27 μl of solution prepared in Example 3.1.3, and is placed in a glass flask. This mixture is incubated at 47° C. for 3 minutes. An assay device is taken and is placed vertically in the glass flask such that the first end of the assay device is in contact with the mixture in such a way that the second end rests on the wall of the glass flask. The mixture is allowed to migrate over the assay device while the assembly is incubated at 47° C. for 2 minutes.
as §7

Assay [3] addresses T1, receptor BlaR-CTD. The assay is described as follows: 3-minute rapid test: strip test for β-lactam antibiotics in milk using BlaR-CTD. The note with it: for Intensity 1st band: scale 0 to 10, reference band 6, 47° C., 1 min incubation + 2 min migration.
Excerpt: as §1, §2, §3, §4, §5, §6
7 samples of fresh milk are prepared, containing 0; 1; 2; 3; 4; 5 and 6 ppb, respectively, of penicillin G. Each of these solutions is then analysed as follows.
An aliquot is taken of 200 μl of milk sample and 45.27 μl of solution prepared in Example 3.1.3, and is placed in a glass flask. This mixture is incubated at 47° C. for 1 minute. An assay device is taken and is placed vertically in the glass flask such that the first end of the assay device is in contact with the mixture and such that the second end rests on the wall of the glass flask. The mixture is allowed to migrate over the assay device while the assembly is incubated at 47° C. for 2 minutes.
as §7

T1 sequence (P12287 340-601): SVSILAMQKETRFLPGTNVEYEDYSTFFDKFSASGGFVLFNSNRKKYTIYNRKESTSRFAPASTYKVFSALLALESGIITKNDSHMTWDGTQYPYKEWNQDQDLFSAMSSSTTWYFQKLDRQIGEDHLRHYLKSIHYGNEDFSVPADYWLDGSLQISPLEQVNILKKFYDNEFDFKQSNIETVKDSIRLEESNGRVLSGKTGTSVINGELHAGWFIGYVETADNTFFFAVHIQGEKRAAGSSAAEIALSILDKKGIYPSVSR

With `CC1(C)S[C@@H]2[C@H](NC(=O)Cc3ccccc3)C(=O)N2[C@H]1C(=O)O` [Penicillin G, penicillin G], the “lowest concentration detected in a milk sample” value is reported as 3 ppb in assay [1]; 3 ppb in assay [2]; “less than 4 ppb” in assay [3] (in 3 minutes, positive when first band is less intense than second band). The “Intensity 1st band” value was 9 in assay [3] (1 ppb penicillin G in fresh milk); 9 in assay [3] (2 ppb penicillin G in fresh milk); 4 in assay [3] (3 ppb penicillin G in fresh milk); 0 in assay [3] (4 ppb penicillin G in fresh milk); 0 in assay [3] (5 ppb penicillin G in fresh milk); 0 in assay [3] (6 ppb penicillin G in fresh milk).
